# Experimental data taken from patent publication US6022969A, “Compositions and methods for treating mast-cell mediated conditions” (AXYS Pharmaceuticals, Inc., priority 1995, dated 2000).
# Molecular target: tryptase
# Assay: In vitro tryptase inhibition assay (hydrolysis of tosyl-Gly-Pro-Lys-p-nitroanilide)
# Assay type: biochemical, human
# Conditions: tosyl-Gly-Pro-Lys-p-nitroanilide 0.5 mM, pH 8.2, 1 h pre-incubation, room temperature
# Description: The compounds to be assayed (approximately 1 mg) were dissolved in 200 μL dimethylsulfoxide (DMSO) and diluted 1:10 into buffer containing 50 millimolar (mM) Tris-HCl (pH 8.2), 100 mM sodium chloride, and 0.05% polyoxyethylenesorbitan monolaurate (Tween-20®, available from Sigma, St. Louis, Mo.). Seven additional threefold dilutions were made from the initial dilution into the same buffer supplemented with 10% DMSO. Aliquots (50 microliters, μL) from each of the eight dilutions in the series were transferred to individual wells in a 96-well U-bottom microtiter plate. 25 μL of a stock solution of tryptase was added to each well and the samples were mixed and incubated for one hour at room temperature (tryptase was purified from human lung and skin tissue preparations, HMC-1 (human mast cell line) and also obtained from commercial sources (ICN Biomedicals, Irvine, Calif.; Athens Research & Technology, Athens, Ga.)). […] The tryptase solution was prepared by placing 60 μg/mL of tryptase into solution with 10 mM MES (2-[N-Morpholino]ethane sulfonic acid) containing 2 mM CaCl2, 20% glycerol and 50 μg/mL heparin. The enzyme reaction was initiated with the addition of the synthetic tripeptide substrate, tosyl-Gly-Pro-Lys-p-nitroanilide (available from Sigma, 25 μL; 0.5 mM final concentration).
# However, Ki ' varies with the enzyme concentration used in the enzyme assay. […] The y-intercept of a replot of IC50 (ordinate) versus tryptase concentration (abscissa) produces a value for Ki '.
# The inhibition constants (Ki ', micromolar (μM)) were determined for the compounds of the present invention.
row,Molecule,Ki [nM]
1,"N=C(N)Nc1ccc(CNC(=O)N2CCN(C(=O)OCC34CC5CC(C3)CC(COC(=O)N3CCN(C(=O)NCc6ccc(NC(=N)N)cc6)CC3)(C5)C4)CC2)cc1 [Compound 31, cis-1,5-tetracyclo[3.3.1.1^3,7]decylenedimethylene bis[4-(4-guanidinobenzylcarbamoyl)-1-piperazinecarboxylate]]",26.6
2,"N=C(N)N1CCC(CNC(=O)N2CCN(C(=O)O[C@H]3CCC[C@@H](OC(=O)N4CCN(C(=O)NCC5CCN(C(=N)N)CC5)CC4)CCC3)CC2)CC1 [Compound 27, cis-1,5-cyclooctylene bis[4-(1-amidinopiperid-4-ylmethylcarbamoyl)-1-piperazinecarboxylate]]",614
3,"N=C(N)Nc1ccc(CNC(=O)CNC(=O)O[C@H]2CCC[C@@H](OC(=O)NCC(=O)NCc3ccc(NC(=N)N)cc3)CCC2)cc1 [Compound 2, cis-1,5-Cyclooctylene bis(4-guanidinobenzylcarbamoylmethylaminocarboxylate)]",2
4,"NCCCCCCNC(=O)N1CCN(C(=O)O[C@H]2CCC[C@@H](OC(=O)N3CCN(C(=O)NCCCCCCN)CC3)CCC2)CC1 [Compound 35, cis-1,5-cyclooctylene bis[4-(6-aminohexylcarbamoyl)-1-piperazinecarboxylate]]",1440
5,"N=C(N)Nc1ccc(CNC(=O)N2CCN(C(=O)OC[C@H]3CC[C@@H](COC(=O)N4CCN(C(=O)NCc5ccc(NC(=N)N)cc5)CC4)CC3)CC2)cc1 [Compound 49, cis-1,4-cyclohexylenedimethylene bis[4-(4-guanidinobenzylcarbamoyl)-1-piperazinecarboxylate]]",3.4
6,"N=C(N)Nc1ccc(CNC(=O)CNC(=O)OC[C@H]2CC[C@H](COC(=O)NCC(=O)NCc3ccc(NC(=N)N)cc3)CC2)cc1 [Compound 1, trans-1,4-Cyclohexylenedimethylene bis(4-guanidinobenzylcarbamoylmethylaminocarboxylate)]",4
7,"N=C(N)c1ccc(CCNC(=O)N2CCN(C(=O)O[C@H]3CCC[C@@H](OC(=O)N4CCN(C(=O)NCCc5ccc(C(=N)N)cc5)CC4)CCC3)CC2)cc1 [Compound 33, cis-1,5-cyclooctylene bis{4-[2-(4-amidinophenyl)ethylcarbamoyl)-1-piperazinecarboxylate}]",440
8,"NCc1ccc(CNC(=O)N2CCN(C(=O)O[C@H]3CCC[C@@H](OC(=O)N4CCN(C(=O)NCc5ccc(CN)cc5)CC4)CCC3)CC2)cc1 [Compound 13, cis-1,5-cyclooctylene bis[4-(4-aminomethylbenzylcarbamoyl)-1-piperazinecarboxylate]]",0.13
9,"N=C(N)c1ccc(CC(=O)N2CCN(C(=O)O[C@H]3CCC[C@@H](OC(=O)N4CCN(C(=O)Cc5ccc(C(=N)N)cc5)CC4)CCC3)CC2)cc1 [Compound 24, cis-1,5-cyclooctylene bis[4-(4-amidinophenylacetyl)-1-piperazinecarboxylate)]",0.16
10,"CN(CCOC(=O)NC[C@H]1CC[C@H](CN)CC1)C(=O)O[C@H]1CCC[C@@H](OC(=O)N(C)CCOC(=O)NC[C@H]2CC[C@H](CN)CC2)CCC1 [Compound 41, cis-1,5-cyclooctylene bis[N-2-(trans-4-aminomethylcyclohexylmethylaminoformyloxy)ethyl-N-methylaminocarboxylate}]",1100
11,"NCC1CCN(C(=O)NCCCCNC(=O)O[C@H]2CCC[C@@H](OC(=O)NCCCCNC(=O)N3CCC(CN)CC3)CCC2)CC1 [Compound 25, cis-1,5-cyclooctylene bis{4-[4-(aminomethyl)piperid-1-ylcarbonylamino]butylaminocarboxylate}]",734
12,"N=C(N)Nc1ccc(C(=O)NCC2CCN(C(=O)O[C@H]3CCC[C@@H](OC(=O)N4CCC(CNC(=O)c5ccc(NC(=N)N)cc5)CC4)CCC3)CC2)cc1 [Compound 48, cis-1,5-cyclooctylene bis[4-(4-guanidinophenylcarbonylaminomethyl)-1-piperidinecarboxylate]]",2300
13,NCCC1CCN(C(=O)N2CCN(C(=O)O[C@H]3CCC[C@@H](OC(=O)N4CCN(C(=O)N5CCC(CCN)CC5)CC4)CCC3)CC2)CC1 [Compound 19],1510
14,"N=C(N)C1CCN(C(=O)NCC2CCN(C(=O)O[C@H]3CCC[C@@H](OC(=O)N4CCC(CNC(=O)N5CCC(C(=N)N)CC5)CC4)CCC3)CC2)CC1 [Compound 45, cis-1,5-cyclooctylene bis[4-(4-amidinopiperid-1-ylcarbonylaminomethyl)-1-piperidinecarboxylate]]",114
15,"cis-1,5-tetracyclo[3.3.1.1^3,7 ]decylenedimethylene bis[4-(4-guanidinobenzylcarbamoyl)-1-piperazinecarboxaldehyde] [Compound 32]",12.2
16,NCCc1ccc(CC(=O)N2CCN(C(=O)O[C@H]3CCC[C@@H](OC(=O)N4CCN(C(=O)Cc5ccc(CCN)cc5)CC4)CCC3)CC2)cc1 [Compound 16],1.5
17,"NCCC=CCNC(=O)N1CCN(C(=O)O[C@H]2CCC[C@@H](OC(=O)N3CCN(C(=O)NCC=CCCN)CC3)CCC2)CC1 [Compound 36, cis-1,5-cyclooctylene bis[4-(5-amino-2-pentenylcarbamoyl)-1-piperazinecarboxylate]]",125

# Further molecules by falling Ki, results first:
row,Ki [nM],Molecule
1,1300,"NCCc1ccc(CNC(=O)N2CCN(C(=O)O[C@H]3CCC[C@@H](OC(=O)N4CCN(C(=O)NCc5ccc(CCN)cc5)CC4)CCC3)CC2)cc1 [Compound 14, cis-1,5-cyclooctylene bis{4-[4-(2-aminoethyl)benzylcarbamoyl]-1-piperazinecarboxylate]]"
2,207,"N=C(N)Nc1ccc(CCC(=O)N2CCN(C(=O)O[C@H]3CCC[C@@H](OC(=O)N4CCN(C(=O)CCc5ccc(NC(=N)N)cc5)CC4)CCC3)CC2)cc1 [Compound 11, cis-1,5-cyclooctylene bis[4-[3-(4-guanidinophenyl)propionyl]-1-piperazinecarboxylate}]"
3,60.9,"trans-1,4-cyclohexylene bis[4-(4-guanidinobenzylcarbamoyl)-1-piperazinecarboxaldehyde] [Compound 21]"
4,44,"N=C(N)Nc1ccc(CNC(=O)N2CCN(C(=O)O[C@H]3CCC[C@@H](OC(=O)N4CCN(C(=O)NCCCN)CC4)CCC3)CC2)cc1 [Compound 53, cis-5-[4-(3-aminopropylcarbamoyl)piperazin-1-ylformyloxy]cyclooctyl 4-(4-guanidinobenzylcarbamoyl)-1-piperazinecarboxylate]"
5,30,"N=C(N)N1CCC(CCNC(=O)N2CCN(C(=O)O[C@H]3CCC[C@@H](OC(=O)N4CCN(C(=O)NCCC5CCN(C(=N)N)CC5)CC4)CCC3)CC2)CC1 [Compound 8, cis-1,5-cyclooctylene bis{4-[2-(1-amidinopiperid-4-yl)ethylcarbamoyl]-1-piperazinecarboxylate}]"
6,15.8,"NC[C@H]1CC[C@H](CNC(=O)N2CCN(C(=O)O[C@H]3CCC[C@@H](OC(=O)N4CCN(C(=O)NC[C@H]5CC[C@H](CN)CC5)CC4)CCC3)CC2)CC1 [Compound 4, cis-1,5-Cyclooctylene bis[4-((trans-4-aminomethylcyclohexylenemethylene)carbamoyl)-1-piperazinecarboxylate]]"
7,9,"NCCC1CCC(C(=O)N2CCN(C(=O)O[C@H]3CCC[C@@H](OC(=O)N4CCN(C(=O)C5CCC(CCN)CC5)CC4)CCC3)CC2)CC1 (stereo partly drawn) [Compound 22, cis-1,5-cyclooctylene bis{4-[4-(2-aminoethyl)cyclohexylcarbonyl]-1-piperazinecarboxylate]]"
8,8.7,"N=C(N)c1ccc(CNC(=O)N2CCN(C(=O)O[C@H]3CCC[C@@H](OC(=O)N4CCN(C(=O)NCc5ccc(C(=N)N)cc5)CC4)CCC3)CC2)cc1 [Compound 28, cis-1,5-cyclooctylene bis[4-(4-amidinobenzylcarbamoyl)-1-piperazinecarboxylate}]"
9,5,"N=C(N)N1CCC(CC(=O)N2CCN(C(=O)O[C@H]3CCC[C@@H](OC(=O)N4CCN(C(=O)CC5CCN(C(=N)N)CC5)CC4)CCC3)CC2)CC1 [Compound 7, cis-1,5-cyclooctylene bis{[4-(1-amidinopiperid-4-ylacetyl)-1-piperazinecarboxylate]}]"
10,0.81,"NCC[C@H]1CC[C@H](CC(=O)N2CCN(C(=O)O[C@H]3CCC[C@@H](OC(=O)N4CCN(C(=O)C[C@H]5CC[C@H](CCN)CC5)CC4)CCC3)CC2)CC1 [Compound 20, cis-1,5-cyclooctylene bis{4-[trans-4-(2-aminoethyl)cyclohexylacetyl]-1-piperazinecarboxylate}]"
11,0.45,"N=C(N)Nc1ccc(CNC(=O)N2CCN(C(=O)O[C@H]3CCC[C@@H](OC(=O)N4CCN(C(=O)NCCCCCN)CC4)CCC3)CC2)cc1 [Compound 50, cis-5-[4-(5-aminopentylcarbamoyl)piperazin-1-ylformyloxy]cyclooctyl 4-(4-guanidinobenzylcarbamoyl)-1-piperazinecarboxylate]"
12,0.42,"N=C(N)Nc1ccc(CNC(=O)N2CCN(C(=O)OCC34CCC(COC(=O)N5CCN(C(=O)NCc6ccc(NC(=N)N)cc6)CC5)(CC3)CC4)CC2)cc1 [Compound 47, 1,4-bicyclo[2.2.2]octylenedimethylene bis[4-(4-guanidinobenzylcarbamoyl)-1-piperazinecarboxylate]]"
